The structures appear in SMILES notation.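 Assay format: 96-well plates, 48-hour exposure. The concentration for full growth arrest is given as TGI.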

The values below come from PubChem BioAssay (NCI).

Test systems include HOP-92 NSCLC; MDA-MB-435; SK-MEL-28 melanoma; SNB-75 CNS; KM12 colon; SF-539 CNS; OVCAR-8 ovarian; SK-OV-3 ovarian; DU-145 prostate; NCI-H522 lung; CCRF-CEM leukemia; NCI-H226 lung; A498 renal; K-562 leukemia; MDA-MB-231 breast.
What all share (test): NCI anticancer screen, dose series, 48 h

As to `COc1ccc(NC(C)=O)cc1C1CCC(=O)N1` (centres undefined), the TGI with HOP-92 NSCLC, with MDA-MB-435, in the experiment on SK-MEL-28 melanoma, with SNB-75 CNS, in the experiment with KM12 colon and with SF-539 CNS was greater than 100 µM throughout. Moreover, the TGI in the experiment on OVCAR-8 ovarian, in the experiment on SK-OV-3 ovarian, in the experiment with DU-145 prostate, in the experiment with NCI-H522 lung, in the experiment on CCRF-CEM leukemia and in the experiment with NCI-H226 lung was greater than 100 µM in each case. In addition, the TGI with A498 renal, with K-562 leukemia and with MDA-MB-231 breast was greater than 100 µM in each case.
Consider `Cc1cc(NCCCCCCCCCC[n+]2c(C)cc(N)c3ccccc32)c2ccccc2n1`, for which the TGI in the experiment on HOP-92 NSCLC was 7.62 µM; with MDA-MB-435, 5.86 µM; with SK-MEL-28 melanoma it was 3.82 µM; in the experiment on SNB-75 CNS it was 7.71 µM; with KM12 colon, 2.4 µM; in the experiment with SF-539 CNS, greater than 100 µM. Moreover, the TGI in the experiment with OVCAR-8 ovarian is 15.8 µM; with SK-OV-3 ovarian, 12.9 µM; with DU-145 prostate, 22.3 µM; in the experiment with NCI-H522 lung, greater than 100 µM; in the experiment on CCRF-CEM leukemia, 7.43 µM; with NCI-H226 lung it was greater than 100 µM. For the same compound, the TGI in the experiment on A498 renal was 15.4 µM; in the experiment with K-562 leukemia, 2.36 µM; with MDA-MB-231 breast it was 5.61 µM.
Consider `CC(=O)NC1C(O)C(O)C(CO)OC1n1ncc(=O)[nH]c1=O` (centres undefined), for which the TGI in the experiment with HOP-92 NSCLC, with MDA-MB-435, in the experiment on SK-MEL-28 melanoma, in the experiment with SNB-75 CNS, in the experiment with KM12 colon and in the experiment on SF-539 CNS was greater than 100 µM throughout. Besides, the TGI with OVCAR-8 ovarian, in the experiment on SK-OV-3 ovarian, in the experiment with DU-145 prostate, in the experiment with NCI-H522 lung, in the experiment with CCRF-CEM leukemia and with NCI-H226 lung was greater than 100 µM in each case. Further, the TGI in the experiment on A498 renal, in the experiment on K-562 leukemia and in the experiment with MDA-MB-231 breast was greater than 100 µM throughout.
With `CC1(C)CCCCCCC2OC2CCCCCC(C)(C)C1=O` (centres undefined), the TGI with HOP-92 NSCLC is greater than 81 µM; in the experiment with MDA-MB-435, greater than 100 µM; in the experiment on SK-MEL-28 melanoma, greater than 100 µM; in the experiment with SNB-75 CNS, greater than 100 µM; with KM12 colon, 97 µM; in the experiment with SF-539 CNS, greater than 100 µM. The TGI with OVCAR-8 ovarian is greater than 100 µM; in the experiment on SK-OV-3 ovarian, greater than 100 µM; in the experiment on DU-145 prostate, greater than 100 µM; in the experiment with NCI-H522 lung it was greater than 80.4 µM; in the experiment on CCRF-CEM leukemia, greater than 69.4 µM; with NCI-H226 lung, greater than 94.4 µM. For the same compound, the TGI in the experiment on A498 renal was greater than 100 µM; in the experiment with K-562 leukemia, greater than 82.6 µM; in the experiment on MDA-MB-231 breast it was greater than 100 µM.
With `COc1cc(NCc2ccc3nc(OC)c(OC)nc3c2)cc(OC)c1OC`, the TGI with HOP-92 NSCLC, in the experiment on MDA-MB-435, in the experiment on SK-MEL-28 melanoma, with SNB-75 CNS, in the experiment on KM12 colon and in the experiment with SF-539 CNS was greater than 100 µM in each case. Besides, the TGI in the experiment with OVCAR-8 ovarian, in the experiment with SK-OV-3 ovarian, with DU-145 prostate, with NCI-H522 lung, in the experiment with CCRF-CEM leukemia and in the experiment on NCI-H226 lung was greater than 100 µM each time. Also, the TGI with A498 renal, in the experiment with K-562 leukemia and in the experiment on MDA-MB-231 breast was greater than 100 µM in each case.
For `CC(=O)OC1COC(n2c(-c3ccc(Cl)cc3)cc(-c3ccccc3)c(C#N)c2=S)C(OC(C)=O)C1OC(C)=O` (centres undefined), the TGI with HOP-92 NSCLC is 28.8 µM; with MDA-MB-435, greater than 62.4 µM; in the experiment on SK-MEL-28 melanoma, greater than 45.8 µM; in the experiment with SNB-75 CNS, greater than 100 µM; in the experiment with KM12 colon, greater than 100 µM; in the experiment on SF-539 CNS, 15.2 µM. The TGI was 21.6 µM in the experiment on OVCAR-8 ovarian; greater than 78.7 µM in the experiment with SK-OV-3 ovarian; 41.6 µM in the experiment on DU-145 prostate; greater than 100 µM in the experiment with NCI-H522 lung; greater than 86.1 µM in the experiment on CCRF-CEM leukemia; 32.3 µM in the experiment with NCI-H226 lung. Further, the TGI was 34.1 µM with A498 renal, greater than 59.8 µM in the experiment on K-562 leukemia and 9.38 µM in the experiment on MDA-MB-231 breast.
For the compound `CC1=NN(c2nc(N)nc(CSCc3nc(N)nc(N(C)C)n3)n2)C(C)(C)C1`, the TGI in the experiment on HOP-92 NSCLC, with MDA-MB-435, with SK-MEL-28 melanoma, in the experiment on SNB-75 CNS, in the experiment with KM12 colon and in the experiment on SF-539 CNS was greater than 100 µM throughout. The TGI in the experiment with OVCAR-8 ovarian, in the experiment with SK-OV-3 ovarian, in the experiment on DU-145 prostate, in the experiment on NCI-H522 lung, in the experiment with CCRF-CEM leukemia and with NCI-H226 lung was greater than 100 µM in each case. Further, the TGI with A498 renal is greater than 100 µM; in the experiment on K-562 leukemia, 32.1 µM; in the experiment with MDA-MB-231 breast it was greater than 100 µM.
For the compound `CCOC(=O)C(NC(=O)CC(C)C)(Nc1ccc(S(=O)(=O)Nc2nc(C)cc(C)n2)cc1)C(F)(F)F` (centres undefined), the TGI in the experiment with HOP-92 NSCLC, with MDA-MB-435, in the experiment on SK-MEL-28 melanoma, in the experiment on SNB-75 CNS, in the experiment on KM12 colon and with SF-539 CNS was greater than 100 µM in each case. For the same compound, the TGI with OVCAR-8 ovarian, in the experiment with SK-OV-3 ovarian, in the experiment with DU-145 prostate, with NCI-H522 lung, in the experiment on CCRF-CEM leukemia and with NCI-H226 lung was greater than 100 µM throughout. The TGI in the experiment with A498 renal, in the experiment with K-562 leukemia and in the experiment on MDA-MB-231 breast was greater than 100 µM in each case.
As for `CN(C)CCCCN1c2ccccc2Sc2cc(N=[N+]=[N-])ccc21`, the TGI in the experiment with HOP-92 NSCLC was 10.5 µM; in the experiment on MDA-MB-435 it was 3.09 µM; with SK-MEL-28 melanoma, 3.3 µM; in the experiment on SNB-75 CNS, 4.8 µM; with KM12 colon, 3.17 µM; in the experiment on SF-539 CNS, 3.4 µM. In addition, the TGI with OVCAR-8 ovarian amounted to 3.38 µM; in the experiment with SK-OV-3 ovarian it was 5.1 µM; in the experiment with DU-145 prostate, 3.8 µM; in the experiment on NCI-H522 lung, 3.05 µM; in the experiment on CCRF-CEM leukemia, 4.11 µM; in the experiment with NCI-H226 lung, 7.9 µM. The TGI turned out to be 22.4 µM in the experiment with A498 renal and 3.12 µM in the experiment on MDA-MB-231 breast.
